Results: publication PMC10693528, “A high-throughput metabolomics in vitro platform for the characterization of hepatotoxicity” (Cell Biology and Toxicology, 2023)

Test system: HepG2 cells
Assay: LC-MS/MS targeted intracellular metabolomics
Type: cell-based, human
Conditions: Suppl Fig 10, C3 (C2 for Aroclor), 48 h
In short: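 Metabolites extracted in-plate from HepG2 cells with 80% isopropanol and analysed by RP and HILIC LC-MS/MS in positive and negative mode. Data normalised to lyophilised untreated HepG2 reference samples and to each sample's median across 221 metabolites. Treated versus control compared by Welch t test on log-transformed data.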

[1] = first of two lines with this name
[2] = second of two lines with this name

## O=c1cc(-c2ccccc2)oc2ccc3ccccc3c12 [β-naphthoflavone]
  Carnitine level vs controls: 0.88
  Ceramide (d16:1.C24:0) level vs controls: 1.20
  Ceramide (d17:1.C24:0) level vs controls: 1.24
  Ceramide (d18:1.C20:0) level vs controls: 0.73
  Ceramide (d18:1.C22:1) level vs controls: 0.65
  Ceramide (d18:1.C24:1) level vs controls: 0.64
  Ceramide (d18:2.C16:0) level vs controls: 1.48
  Ceramide (d18:2.C23:0) level vs controls: 1.56
  Ceramide (d18:2.C24:0) level vs controls: 1.41
  Ceramide (d18:2.C24:1) level vs controls: 1.23
  Choline plasmalogen (C36:4) level vs controls: 0.82
  Choline plasmalogen (C36:5) level vs controls: 0.84
  Cysteinylglycine level vs controls: 3.16
  Flavin adenine dinucleotide (FAD) level vs controls: 1.63
  Glutathione (GSH) level vs controls: 2.59
  Hexanoylcarnitine level vs controls: 1.02
  Isopentenyl pyrophosphate (IPP) level vs controls: 2.43
  Lysophosphatidylcholine (C14:0) level vs controls: 1.48
  Lysophosphatidylcholine (C16:0) level vs controls: 2.15
  Lysophosphatidylcholine (C20:0) level vs controls: 2.34
  Lysophosphatidylcholine (C20:1) level vs controls: 2.23
  Lysophosphatidylcholine (C20:4) level vs controls: 1.68
  Lysophosphatidylcholine (C22:0) level vs controls: 1.99
  Lysophosphatidylcholine (C24:0) level vs controls: 2.67
  Lysophosphatidylcholine (C24:1) level vs controls: 2.34
  Lysophosphatidylethanolamine (C16:0) level vs controls: 1.77
  Lysophosphatidylethanolamine (C18:0) level vs controls: 2.25
  N-Acetylglucosamine level vs controls: 0.79
  N-Acetylserine level vs controls: 1.03
  O-Acetylcarnitine level vs controls: 0.87
  Pantothenic acid level vs controls: 0.96
  Phosphatidylcholine (C32:0) level vs controls: 1.16
  Phosphatidylcholine (C34:0) level vs controls: 1.39
  Phosphatidylcholine (C34:2) level vs controls: 0.77
  Phosphatidylcholine (C34:3) level vs controls: 0.60
  Phosphatidylcholine (C36:0) level vs controls: 1.62
  Phosphatidylcholine (C36:1) level vs controls: 1.21
  Phosphatidylcholine (C36:2) level vs controls: 0.80
  Phosphatidylcholine (C36:3) level vs controls: 0.87
  Phosphatidylcholine (C36:4) level vs controls: 1.08
  Phosphatidylcholine (C38:6) level vs controls: 1.09
  Phosphatidylethanolamine (C32:0) level vs controls: 1.63
  Phosphatidylethanolamine (C34:0) level vs controls: 1.79
  Phosphatidylethanolamine (C34:1) level vs controls: 1.38
  Phosphatidylethanolamine (C34:2) level vs controls: 0.93
  Phosphatidylethanolamine (C36:0) level vs controls: 2.10
  Phosphatidylethanolamine (C36:1) level vs controls: 1.81
  Phosphatidylethanolamine (C36:3) level vs controls: 0.84
  Phosphatidylethanolamine (C38:5) level vs controls: 0.93
  Phosphatidylethanolamine (C40:7) level vs controls: 0.79
  Proline level vs controls: 0.64
  Propionylcarnitine level vs controls: 1.03
  Sphingomyelin (d32:1) level vs controls: 0.84
  Sphingomyelin (d35:1) level vs controls: 1.06
  Sphingomyelin (d38:2) level vs controls: 0.94
  Sphingomyelin (d40:2) level vs controls: 0.77
  Sphingomyelin (d41:2) level vs controls: 0.85
  Sphingomyelin (d42:2) level vs controls: 0.74
  Triacylglycerol (C30:0.C18:1) level vs controls: 0.36
  Triacylglycerol (C32:0.C16:1) level vs controls: 0.41
  Triacylglycerol (C32:1.C16:1) level vs controls: 0.26
  Triacylglycerol (C34:0.C18:1) level vs controls: 0.47
  Triacylglycerol (C34:1.C16:0) level vs controls: 0.39
  Triacylglycerol (C34:1.C18:1) level vs controls: 0.47
  Triacylglycerol (C34:2.C18:0) level vs controls: 0.40
  Triacylglycerol (C34:2.C18:1) level vs controls: 0.24
  Triacylglycerol (C36:1.C18:0) level vs controls: 0.46
  Triacylglycerol (C36:1.C18:1) level vs controls: 0.35
  Triacylglycerol (C36:1.C18:2) level vs controls: 0.46
  Triacylglycerol (C36:2.C18:1) level vs controls: 0.41
  Triacylglycerol (C36:3.C18:1) level vs controls: 0.38
  Tyrosine level vs controls: 1.14
  myo-Inositol-2-phosphate level vs controls: 0.65
[1]
  Sphingomyelin (d34:2) level vs controls: 1.05
[2]
  Sphingomyelin (d34:2) level vs controls: 1.07

## CCC(CC)Nc1c([N+](=O)[O-])cc(C)c(C)c1[N+](=O)[O-] [Pendimethalin]
  Carnitine level vs controls: 0.76
  Ceramide (d16:1.C24:0) level vs controls: 1.35
  Ceramide (d17:1.C24:0) level vs controls: 1.40
  Ceramide (d18:1.C20:0) level vs controls: 0.81
  Ceramide (d18:1.C22:1) level vs controls: 0.43
  Ceramide (d18:1.C24:1) level vs controls: 0.54
  Ceramide (d18:2.C16:0) level vs controls: 2.06
  Ceramide (d18:2.C23:0) level vs controls: 1.14
  Ceramide (d18:2.C24:0) level vs controls: 1.87
  Ceramide (d18:2.C24:1) level vs controls: 1.17
  Choline plasmalogen (C36:4) level vs controls: 0.63
  Choline plasmalogen (C36:5) level vs controls: 0.68
  Cysteinylglycine level vs controls: 1.14
  Flavin adenine dinucleotide (FAD) level vs controls: 1.14
  Glutathione (GSH) level vs controls: 1.12
  Hexanoylcarnitine level vs controls: 0.69
  Isopentenyl pyrophosphate (IPP) level vs controls: 2.79
  Lysophosphatidylcholine (C14:0) level vs controls: 2.28
  Lysophosphatidylcholine (C16:0) level vs controls: 2.37
  Lysophosphatidylcholine (C20:0) level vs controls: 2.37
  Lysophosphatidylcholine (C20:1) level vs controls: 1.47
  Lysophosphatidylcholine (C20:4) level vs controls: 2.32
  Lysophosphatidylcholine (C22:0) level vs controls: 3.44
  Lysophosphatidylcholine (C24:0) level vs controls: 4.49
  Lysophosphatidylcholine (C24:1) level vs controls: 3.59
  Lysophosphatidylethanolamine (C16:0) level vs controls: 1.81
  Lysophosphatidylethanolamine (C18:0) level vs controls: 2.07
  N-Acetylglucosamine level vs controls: 0.93
  N-Acetylserine level vs controls: 1.47
  O-Acetylcarnitine level vs controls: 1.02
  Pantothenic acid level vs controls: 0.78
  Phosphatidylcholine (C32:0) level vs controls: 1.93
  Phosphatidylcholine (C34:0) level vs controls: 1.83
  Phosphatidylcholine (C34:2) level vs controls: 0.64
  Phosphatidylcholine (C34:3) level vs controls: 0.79
  Phosphatidylcholine (C36:0) level vs controls: 2.49
  Phosphatidylcholine (C36:1) level vs controls: 0.93
  Phosphatidylcholine (C36:2) level vs controls: 0.52
  Phosphatidylcholine (C36:3) level vs controls: 0.73
  Phosphatidylcholine (C36:4) level vs controls: 1.10
  Phosphatidylcholine (C38:6) level vs controls: 1.15
  Phosphatidylethanolamine (C32:0) level vs controls: 3.04
  Phosphatidylethanolamine (C34:0) level vs controls: 2.78
  Phosphatidylethanolamine (C34:1) level vs controls: 1.48
  Phosphatidylethanolamine (C34:2) level vs controls: 0.68
  Phosphatidylethanolamine (C36:0) level vs controls: 3.98
  Phosphatidylethanolamine (C36:1) level vs controls: 1.46
  Phosphatidylethanolamine (C36:3) level vs controls: 0.82
  Phosphatidylethanolamine (C38:5) level vs controls: 0.79
  Phosphatidylethanolamine (C40:7) level vs controls: 0.57
  Proline level vs controls: 0.89
  Propionylcarnitine level vs controls: 0.65
  Sphingomyelin (d32:1) level vs controls: 0.92
  Sphingomyelin (d35:1) level vs controls: 1.07
  Sphingomyelin (d38:2) level vs controls: 0.76
  Sphingomyelin (d40:2) level vs controls: 0.93
  Sphingomyelin (d41:2) level vs controls: 0.79
  Sphingomyelin (d42:2) level vs controls: 0.73
  Triacylglycerol (C30:0.C18:1) level vs controls: 0.81
  Triacylglycerol (C32:0.C16:1) level vs controls: 0.66
  Triacylglycerol (C32:1.C16:1) level vs controls: 0.58
  Triacylglycerol (C34:0.C18:1) level vs controls: 0.96
  Triacylglycerol (C34:1.C16:0) level vs controls: 0.79
  Triacylglycerol (C34:1.C18:1) level vs controls: 0.71
  Triacylglycerol (C34:2.C18:0) level vs controls: 0.87
  Triacylglycerol (C34:2.C18:1) level vs controls: 0.44
  Triacylglycerol (C36:1.C18:0) level vs controls: 0.86
  Triacylglycerol (C36:1.C18:1) level vs controls: 0.65
  Triacylglycerol (C36:1.C18:2) level vs controls: 0.83
  Triacylglycerol (C36:2.C18:1) level vs controls: 0.49
  Triacylglycerol (C36:3.C18:1) level vs controls: 0.78
  Tyrosine level vs controls: 1.14
  myo-Inositol-2-phosphate level vs controls: 0.76
[1]
  Sphingomyelin (d34:2) level vs controls: 1.11
[2]
  Sphingomyelin (d34:2) level vs controls: 1.27
